{
  "source": "patent US20020091133A1",
  "about": "“Use of 9-substituted purine analogues and other molecules to stimulate neurogenesis” (Eve M. Taylor, priority 2000, published 2002)",
  "key": {"[1]": {"system": "neural stem and progenitor cells in the dentate gyrus", "assay": "Neural stem and progenitor cell proliferation: BrdU labeling in dentate gyrus 24 hr after single AIT-082 dose", "format": "in vivo", "conditions": "adult mice, single intraperitoneal dose 0.1-10 mg/kg, perfused at 24 hr; normalized to saline control, two experiments combined (FIG. 2)", "description": "In two separate experiments, AIT-082 was administered intraperitoneally to adult mice (5-7 per group) at 0.01-100 mg/kg. Saline was given as a negative control. Starting two hours after AIT-082 administration, animals received four intraperitoneal injections of bromodeoxyuridine (BrdU; 50 mg/kg each) at 3 hr intervals. BrdU is a thymidine analogue that is incorporated into DNA during synthesis and thus labels newly formed cells. Animals were perfused at 24 hr after the AIT-082 administration. This treatment regimen is outlined in FIG. 1.\nAnimals were perfused transcardially with 50 mL ice-cold phosphate buffered saline (PBS) and then 100 mL of 4% paraformaldehyde in PBS. Brains were removed, post-fixed in 4% paraformaldehyde for 24 hr at 4° C., and then transferred to 30% sucrose at 4° C. for a minimum of 3 days before sectioning. Coronal sections (40 μm) were prepared using a freezing microtome and stored in cryoprotectant at −20° C. before immunostaining for BrdU.\nEvery sixth section through the rostral-caudal extent of the hippocampus was immunostained for BrdU with mouse anti-BrdU paired with a biotinylated goat anti-mouse IgG. Avidin-biotin-horseradish peroxidase (HRP) complex was applied to sections and immunoreactivity visualized by reacting diaminobenzidine with the HRP. Stereological techniques were used to estimate the total number of BrdU-positive cells in the dentate gyrus."}, "[2]": {"system": "neural stem and progenitor cells in the dentate gyrus", "assay": "Neural stem and progenitor cell differentiation: BrdU/NeuN/S100β colocalization in dentate gyrus 42 days after single AIT-082 dose", "format": "in vivo", "conditions": "adult mice", "description": "AIT-082 was administered intraperitoneally to adult mice (5-7 per group) at a dose of 1 -100 mg/kg. Saline was given as a negative control. Starting two hours after AIT-082 administration, animals received four intraperitoneal injections of bromodeoxyuridine (BrdU; 50 mg/kg each) at 3 hr intervals. Animals were perfused at 42 days after the AIT-082 administration. During these 42 days newly born neural stem cells have enough time to differentiate into neurons, astrocytes and other brain cells. This treatment regimen is outlined in FIG. 3.\nAnimals were perfused, brains treated and sections prepared as described for Example 1.\nEvery sixth section through the rostral-caudal extent of the hippocampus was immunostained with rat anti-BrdU paired with a Alexa 568 goat anti-rat IgG (red), mouse anti-NeuN (a neuronal marker) paired with Alexa 488 goat anti-mouse IgG (green), and rabbit anti-S100β (an astrocytes marker) paired with Alexa 647 goat anti-rabbit IgG (blue). Stereological techniques were used to estimate the total number of BrdU-positive nuclei in the dentate gyrus and the number of BrdU-positive cells that were also positive for NeuN (i.e indicating newly formed neurons) or S100β (indicating newly formed astrocytes). Cells that were BrdU-positive and not positive for either NeuN or S100β were labeled “other”. […]"}},
  "data": [
    {"smiles": "O=C(CCn1cnc2c(=O)[nH]cnc21)Nc1ccc(C(=O)O)cc1", "note": "[AIT-082, N-4-[[3-(6-oxo-1,6-dihydropurin-9-yl)-1-oxopropyl]amino] benzoic acid]", "values": [
      {"measurement": "total number of BrdU-positive cells in dentate gyrus", "setting": "[1]", "result": "statistically significant increase"},
      {"measurement": "number of BrdU-positive cells in dentate gyrus", "setting": "[2]; single intraperitoneal dose 1 or 10 mg/kg, perfused at 42 days (FIG. 5A)", "result": "increase"},
      {"measurement": "number of new neurons formed in the dentate gyrus (BrdU- and NeuN-positive cells)", "setting": "[2]; single intraperitoneal dose, perfused at 42 days (FIG. 5B)", "result": "significant increase"}
    ]}
  ]
}
